The target in the assay is T1, Insulin-Degrading Enzyme (IDE) (Homo sapiens, UniProt P14735).
T1 sequence (P14735 42-1019): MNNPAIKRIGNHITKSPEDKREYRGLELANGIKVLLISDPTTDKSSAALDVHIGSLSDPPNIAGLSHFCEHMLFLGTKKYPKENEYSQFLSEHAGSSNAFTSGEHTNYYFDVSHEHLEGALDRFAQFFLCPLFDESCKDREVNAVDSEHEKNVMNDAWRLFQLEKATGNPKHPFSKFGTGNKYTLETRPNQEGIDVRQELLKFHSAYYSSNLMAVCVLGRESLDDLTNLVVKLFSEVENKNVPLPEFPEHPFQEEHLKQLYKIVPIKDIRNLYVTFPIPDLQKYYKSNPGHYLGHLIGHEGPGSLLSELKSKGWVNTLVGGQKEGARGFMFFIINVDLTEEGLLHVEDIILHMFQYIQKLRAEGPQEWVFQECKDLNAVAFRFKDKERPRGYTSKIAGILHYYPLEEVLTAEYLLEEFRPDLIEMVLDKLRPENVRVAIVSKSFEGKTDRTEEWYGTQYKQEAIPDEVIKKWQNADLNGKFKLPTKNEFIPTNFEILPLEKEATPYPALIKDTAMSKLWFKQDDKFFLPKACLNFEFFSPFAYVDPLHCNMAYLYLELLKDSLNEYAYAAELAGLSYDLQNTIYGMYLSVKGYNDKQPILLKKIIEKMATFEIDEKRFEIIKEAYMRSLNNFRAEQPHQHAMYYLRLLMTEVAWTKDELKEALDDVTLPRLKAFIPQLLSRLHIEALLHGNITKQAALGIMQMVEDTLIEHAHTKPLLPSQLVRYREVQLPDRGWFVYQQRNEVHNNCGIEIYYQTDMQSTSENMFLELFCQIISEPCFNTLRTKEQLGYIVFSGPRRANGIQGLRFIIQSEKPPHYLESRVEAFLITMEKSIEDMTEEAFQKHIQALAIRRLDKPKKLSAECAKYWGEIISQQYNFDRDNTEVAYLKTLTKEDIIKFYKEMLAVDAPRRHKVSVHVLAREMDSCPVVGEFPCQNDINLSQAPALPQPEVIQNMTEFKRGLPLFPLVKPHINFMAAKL
The experiment in a line: fluorogenic peptide hydrolysis by purified IDE, two-site kinetic fit; LC-MS of insulin hydrolysis (about […] decrease). Type of assay: biochemical.

`CC(C)C[C@H](NC(=O)[C@H](CCc1ccccc1)NC(=O)CN1CCOCC1)C(=O)N[C@@H](Cc1ccccc1)C(=O)N[C@@H](CC(C)C)C(=O)[C@@]1(C)CO1` [CFZ, Carfilzomib] showed a Kd of 130 nM. This lies in the sub-micromolar range.

A word on the Kd: it is the equilibrium constant for the complex coming apart.
